Measured values: patent publication US20210186960A1, “MODULATORS OF INDOLEAMINE 2,3-DIOXYGENASE” (GLAXOSMITHKLINE INTELLECTUAL PROPERTY DEVELOPMENT LIMITED, priority 2017, published 2021)
Where two headings read alike, the source gives them in different places.

Assay: Plasma PK and tissue distribution after oral dosing of INTERMEDIATE C4 (3 mg/kg)
Assay type: in vivo
Conditions: PO 3 mg/kg INTERMEDIATE C4, male Wistar Han rat; for Kp at 1 h / Kp at 4 h / Kp at 8 h / Kp / concentration at 1 h / concentration at 4 h / concentration at 8 h: male, Wistar Han, rat, po
Experimental: Tissue Distribution of drug intermediate C4 from oral dosing of C4 and of intermediate C4 from oral dosing of example 7 in rats
• Wistar Han rat, 185-197 g, male, N=8, purchased from Beijing Vital River Co. LTD. Qualification No.: SCXK(J) 2016-0011 11400700240027. Fasted overnight and fed 4 hr post dose. PO: 3 mg/kg (10 mL/kg) via oral gavage(N=8). Sampling at 1, 4, 8 and 24 hr , 4 time points, terminal bleeding for plasma, liver, lymph nodes and spleen collected at each time point.

[1] = liver / plasma, 3 mg/kg, read-out: Liver to plasma ratio Mean
[2] = liver / plasma, 3 mg/kg, read-out: Liver to plasma ratio individual
[3] = liver, 3 mg/kg, read-out: liver Concentration Mean
[4] = liver, 3 mg/kg, read-out: liver Concentration individual
[5] = lymph node / plasma, 3 mg/kg, read-out: Lymph node to plasma ratio Mean
[6] = lymph node / plasma, 3 mg/kg, read-out: Lymph node to plasma ratio individual
[7] = lymph node, 3 mg/kg, read-out: lymph node Concentration Mean
[8] = lymph node, 3 mg/kg, read-out: lymph node Concentration individual
[9] = plasma, 3 mg/kg, read-out: plasma Concentration Mean
[10] = plasma, 3 mg/kg, read-out: plasma Concentration individual
[11] = spleen, 3 mg/kg, read-out: spleen Concentration Mean
[12] = spleen, 3 mg/kg, read-out: spleen Concentration individual
[13] = spleen/plasma, 3 mg/kg, read-out: Spleen to plasma ratio Mean
[14] = spleen/plasma, 3 mg/kg, read-out: Spleen to plasma ratio individual

Q: For CC(C)CN(c1ccc([C@H](C)CC(=O)O)cc1Nc1cnc(Cl)cn1)C1CCOCC1 [intermediate C4], which “Liver to plasma ratio individual” value (8 hr, 3 mg/kg) is on record?
A: 13.2

Q: And the “liver Concentration individual” value (8 hr, 3 mg/kg)?
A: 299 ng/g

Q: And the “lymph node Concentration individual” value (8 hr, 3 mg/kg)?
A: BQL

Q: And the “plasma Concentration individual” value (8 hr, 3 mg/kg)?
A: 22.7 ng/mL

Q: And the “liver Concentration Mean” value (24 hr)?
A: BQL

Q: And the “liver Concentration individual” value (24 hr)?
A: BQL

Q: And the “lymph node Concentration Mean” value (24 hr)?
A: BQL

Q: What about the “lymph node Concentration individual” value (24 hr) of the same compound?
A: BQL

Q: And the “plasma Concentration Mean” value (24 hr)?
A: BQL

Q: What about the “plasma Concentration individual” value (24 hr) of the same compound?
A: BQL

Q: What about the “spleen Concentration Mean” value (24 hr) of the same compound?
A: BQL

Q: And the “spleen Concentration individual” value (24 hr)?
A: BQL

Q: And the AUC(0-t) (liver, read-out: AUClast (liver))?
A: 10200 ng·h/mL

Q: What about the AUC(0-t) (lymph node, read-out: AUClast (lymph node)) of the same compound?
A: 381 ng·h/mL

Q: What about the Kp at 1 h [1] of the same compound?
A: 9.31

Q: And the Kp at 1 h [2]?
A: 10.5

Q: What about the Kp at 4 h [1] of the same compound?
A: 13.7

Q: What about the Kp at 4 h [2] of the same compound?
A: 12.7

Q: And the Kp at 8 h (liver / plasma, 3 mg/kg, 8 hr, read-out: Liver to plasma ratio Mean)?
A: 14.6

Q: What about the Kp at 8 h (liver / plasma, 3 mg/kg, 8 hr, read-out: Liver to plasma ratio individual) of the same compound?
A: 16

Q: And the Kp (liver / plasma, 3 mg/kg, read-out: AUCliver/AUCplasma)?
A: 10.7

Q: And the concentration at 1 h [3]?
A: 3130 ng/g

Q: And the concentration at 1 h [4]?
A: 3690 ng/g

Q: And the concentration at 4 h [3]?
A: 883 ng/g

Q: What about the concentration at 4 h [4] of the same compound?
A: 868 ng/g

Q: And the concentration at 8 h (liver, 3 mg/kg, 8 hr, read-out: liver Concentration Mean)?
A: 420 ng/g

Q: And the concentration at 8 h (liver, 3 mg/kg, 8 hr, read-out: liver Concentration individual)?
A: 540 ng/g

Q: And the Kp at 1 h [5]?
A: 0.293

Q: What about the Kp at 1 h [6] of the same compound?
A: 0.333

Q: And the Kp at 4 h [5]?
A: 0.716

Q: And the Kp at 4 h [6]?
A: 0.526

Q: And the Kp at 8 h (lymph node / plasma, 3 mg/kg, 8 hr, read-out: Lymph node to plasma ratio Mean)?
A: 0.353

Q: What about the Kp at 8 h (lymph node / plasma, 3 mg/kg, 8 hr, read-out: Lymph node to plasma ratio individual) of the same compound?
A: 0.353

Q: What about the Kp (lymph node / plasma, 3 mg/kg, read-out: AUClimphnode/AUCplasma) of the same compound?
A: 0.401

Q: And the concentration at 1 h [7]?
A: 98.7 ng/g

Q: And the concentration at 1 h [8]?
A: 117 ng/g

Q: And the concentration at 4 h [7]?
A: 45.7 ng/g

Q: What about the concentration at 4 h [8] of the same compound?
A: 35.9 ng/g

Q: What about the concentration at 8 h (lymph node, 3 mg/kg, 8 hr, read-out: lymph node Concentration Mean) of the same compound?
A: 11.9 ng/g

Q: What about the concentration at 8 h (lymph node, 3 mg/kg, 8 hr, read-out: lymph node Concentration individual) of the same compound?
A: 11.9 ng/g

Q: What about the concentration at 1 h [9] of the same compound?
A: 334 ng/mL

Q: And the concentration at 1 h [10]?
A: 351 ng/mL

Q: And the concentration at 4 h [9]?
A: 64.7 ng/mL

Q: What about the concentration at 4 h [10] of the same compound?
A: 68.2 ng/mL

Q: What about the concentration at 8 h (plasma, 3 mg/kg, 8 hr, read-out: plasma Concentration Mean) of the same compound?
A: 28.2 ng/mL

Q: And the concentration at 8 h (plasma, 3 mg/kg, 8 hr, read-out: plasma Concentration individual)?
A: 33.7 ng/mL

Q: What about the concentration at 1 h [11] of the same compound?
A: 63.9 ng/g

Q: And the concentration at 1 h [12]?
A: 65.3 ng/g

Q: What about the concentration at 4 h [11] of the same compound?
A: 19.9 ng/g

Q: And the concentration at 4 h [12]?
A: 19.3 ng/g

Q: And the Kp at 1 h [13]?
A: 0.191

Q: What about the Kp at 1 h [14] of the same compound?
A: 0.186

Q: What about the Kp at 4 h [13] of the same compound?
A: 0.308

Q: And the Kp at 4 h [14]?
A: 0.283

Q: What about the Kp (spleen/plasma, 3 mg/kg, read-out: AUCspleen/AUCplasma) of the same compound?
A: 0.166

Q: What about the AUC(0-inf) (plasma, mean) of the same compound?
A: 1030 ng·h/mL

Q: What about the Cmax (plasma, mean) of the same compound?
A: 334 ng/mL

Q: And the Tmax (plasma, mean)?
A: 1 h

Q: What about the AUC(0-t) (plasma, mean, read-out: AUClast) of the same compound?
A: 951 ng·h/mL

Q: What about the half-life (plasma, mean, read-out: Terminal t1/2 (converted)) of the same compound?
A: 2.01 h

Q: What about the AUC(0-t) (spleen, read-out: AUClast (spleen)) of the same compound?
A: 157 ng·h/mL
